Tests used:
Experiment in all cases: ATP formation, hexokinase/G6PDH end-point assay
Type in all cases: biochemical
Settings in all cases: 2.5 mM ADP, 2 mM MgCl2, 100 mM KCl, HEPES pH 7.4, 5-65 °C
AKm [1] = target: T1, AKm (Bacillus subtilis, UniProt P16304, I26T)
T1 construct: gene adk; full length (residues 1-217), pET11a, E. coli BL21 (DE3); Affi-Gel blue and size exclusion, no tag mentioned

AKp [2] = target: T2, AKp (Sporosarcina globispora, UniProt P84139, T26I)
T2 construct: gene adk; full length (residues 1-217), pET30a, E. coli BL21 (DE3); Affi-Gel blue and size exclusion, no tag mentioned
T2 sequence (P84139 whole entry T26I, the tested form may be a part): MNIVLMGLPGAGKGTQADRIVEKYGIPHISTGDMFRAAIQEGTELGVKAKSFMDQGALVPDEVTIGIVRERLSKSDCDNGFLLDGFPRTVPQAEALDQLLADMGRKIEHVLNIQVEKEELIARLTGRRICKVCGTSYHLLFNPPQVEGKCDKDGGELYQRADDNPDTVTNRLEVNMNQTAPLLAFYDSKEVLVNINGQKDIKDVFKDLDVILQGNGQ

AKp [3] = target: T3, AKp (Sporosarcina globispora, UniProt P84139)
T3 construct: gene adk; full length (residues 1-217), pET30a, E. coli BL21 (DE3); Affi-Gel blue and size exclusion, no tag mentioned
T3 sequence (P84139 whole entry, the tested form may be a part): as the sequence (P84139 whole entry T26I, the tested form may be a part) above, with I26T counted along it

AKm [4] = target: T4, AKm (Bacillus subtilis, UniProt P16304)
T4 construct: gene adk; full length (residues 1-217), pET11a, E. coli BL21 (DE3); Affi-Gel blue and size exclusion, no tag mentioned
T4 sequence (P16304 whole entry, the tested form may be a part): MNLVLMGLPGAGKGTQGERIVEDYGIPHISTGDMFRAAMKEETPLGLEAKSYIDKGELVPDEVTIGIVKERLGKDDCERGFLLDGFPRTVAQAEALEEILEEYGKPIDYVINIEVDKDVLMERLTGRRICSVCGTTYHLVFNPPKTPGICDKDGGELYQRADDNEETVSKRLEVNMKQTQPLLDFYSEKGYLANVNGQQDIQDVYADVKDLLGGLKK

T1 sequence (P16304 whole entry I26T, the tested form may be a part): as the sequence (P16304 whole entry, the tested form may be a part) above, with I26T counted along it

Nc1ncnc2c1ncn2[C@@H]1O[C@H](COP(=O)(O)OP(=O)(O)O)[C@@H](O)[C@H]1O [ADP]
ATP formation, hexokinase/G6PDH end-point assay (AKm [1]): The activity assays of WT AKm and the I26T mutant also showed consistent results
ATP formation, hexokinase/G6PDH end-point assay (AKp [2]): we determined the temperature dependence of the activities of WT AKp and its T26I mutant
ATP formation, hexokinase/G6PDH end-point assay (AKp [3]): we determined the temperature dependence of the activities of WT AKp and its T26I mutant
ATP formation, hexokinase/G6PDH end-point assay (AKm [4]): The activity assays of WT AKm and the I26T mutant also showed consistent results

— publication PMC6498869, “Structural and mutational analyses of psychrophilic and mesophilic adenylate kinases highlight the role of hydrophobic interactions in protein thermal stability” (Structural Dynamics, 2019)
